Measured values published in patent EP3818828A1 (priority 2019, dated 2021).
Values after ≈ are worked out from the molar mass of the structure shown. Where two headings read alike, the source gives them in different places.

Tests used:
Assay type in all cases: cell-based
Botrytis cinerea = experiment: Toxicity determination (EC50) on mycelial growth, growth rate method
Colletotrichum capsici = experiment: as above; conditions: for EC50: median inhibition concentration
Sclerotinia sclerotiorum = experiment: as above
Valsa mali = experiment: as above; conditions: for EC50: median inhibition concentration
Magnaporthe grisea = experiment: microbe, parasite or virus in culture; conditions: for EC50: median inhibition concentration
[1] = EC50 of chlorothalonil / EC50 of agent
[2] = EC50 of procymidone / EC50 of agent
[3] = median inhibition concentration

O=C(/C=C/c1ccc2c(c1)OCO2)N1CCCCC1 [3-(3',4'-methylenedioxyphenyl)-piperidine acrylate]
Relative Toxicity (Compared to Chlorothalonil) (Botrytis cinerea; [1]): 0.84 | Relative Toxicity (Compared to Procymidone) (Botrytis cinerea; [2]): 0.37 | EC50 (Botrytis cinerea; [3]): 212 µg/mL (≈ 816 µM) | EC50 (Colletotrichum capsici; Colletotrichum truncatum, read-out: EC50): 130 µg/mL (≈ 501 µM) | Relative Toxicity (Compared to Chlorothalonil) (Colletotrichum capsici; [1]): 3.23 | Relative Toxicity (Compared to Procymidone) (Colletotrichum capsici; [2]): 4.13 | EC50 (Colletotrichum capsici; listed as 66#): 125.3 µg/mL (≈ 483 µM) | Relative Toxicity (Compared to Chlorothalonil) (Sclerotinia sclerotiorum; [1]): 0.28 | Relative Toxicity (Compared to Procymidone) (Sclerotinia sclerotiorum; [2]): 0.31 | EC50 (Sclerotinia sclerotiorum; [3]): 227 µg/mL (≈ 875 µM) | EC50 (Valsa mali; Cytospora mali, read-out: EC50): 90 µg/mL (≈ 347 µM) | Relative Toxicity (Compared to Chlorothalonil) (Valsa mali; [1]): 4.68 | Relative Toxicity (Compared to Procymidone) (Valsa mali; [2]): 4.78 | EC50 (Valsa mali; listed as 66#): 89.4 µg/mL (≈ 345 µM) | Relative Toxicity (Compared to Chlorothalonil) (Magnaporthe grisea; [1]): 2.45 | Relative Toxicity (Compared to Procymidone) (Magnaporthe grisea; [2]): 1.73 | EC50 (Magnaporthe grisea; Pyricularia oryzae): 180 µg/mL (≈ 694 µM) | EC50 (Magnaporthe grisea; listed as 66#): 177.6 µg/mL (≈ 685 µM)
